Values of other authors in patent US20210169839A1, “PEDIATRIC IMMEDIATE-RELEASE FORMULATION OF THE POTASSIUM CHANNEL OPENER EZOGABINE” (Xenon Pharmaceuticals Inc., priority 2019, published 2021).
Like-named read-outs stand apart in the source and are kept apart here.

Tests used:
KCNQ2-DEE [1] = system: KCNQ2-DEE
rodent seizure models = conditions: battery of rodent seizure models
KCNQ2-DEE [2] = system: KCNQ2-DEE; remark: listed apart in the source

## CCOC(=O)Nc1ccc(NCc2ccc(F)cc2)cc1N [Ezogabine, 2-amino-4-(4-fluorobenzylamino)-1-ethoxycarbonylaminobenzene]
KCNQ2-DEE [1]; eight children with KCNQ2-DEE
  improvements in development or cognition: all eight patients
KCNQ2-DEE [1]; patients with at least weekly seizures
  Sustained improvement in seizure frequency: five of the six
Rodent seizure models
  anti-convulsant activity: broad spectrum activity
KCNQ2-DEE [2]; case report of 11 patients
  serious adverse effects: No serious adverse effects were observed
KCNQ2-DEE [2]; infants treated before six months of age
  improvement in seizures and/or development: three of the four
KCNQ2-DEE [2]; patients treated later than six months of age
  improvement in seizures and/or development: two of the seven
